“Also recorded” adds a separate entry of the source. Read-outs that look alike come from different tables or passages of the source.
Experiments:
mC6A = settings: cited from earlier work
From the text: Supplement pone.0146846.s004.docx, table 1 | column: Functional assay

mGPRC6A (mouse GPRC6A) [1] = molecular target: T1, mGPRC6A (mouse GPRC6A) (Mus musculus, UniProt Q8K4Z6); assay: Label-free cell impedance (xCELLigence), tetracycline-induced FlpIn-TREx-HEK293-mGPRC6A cells; type: cell-based
T1 sequence (Q8K4Z6 21-928): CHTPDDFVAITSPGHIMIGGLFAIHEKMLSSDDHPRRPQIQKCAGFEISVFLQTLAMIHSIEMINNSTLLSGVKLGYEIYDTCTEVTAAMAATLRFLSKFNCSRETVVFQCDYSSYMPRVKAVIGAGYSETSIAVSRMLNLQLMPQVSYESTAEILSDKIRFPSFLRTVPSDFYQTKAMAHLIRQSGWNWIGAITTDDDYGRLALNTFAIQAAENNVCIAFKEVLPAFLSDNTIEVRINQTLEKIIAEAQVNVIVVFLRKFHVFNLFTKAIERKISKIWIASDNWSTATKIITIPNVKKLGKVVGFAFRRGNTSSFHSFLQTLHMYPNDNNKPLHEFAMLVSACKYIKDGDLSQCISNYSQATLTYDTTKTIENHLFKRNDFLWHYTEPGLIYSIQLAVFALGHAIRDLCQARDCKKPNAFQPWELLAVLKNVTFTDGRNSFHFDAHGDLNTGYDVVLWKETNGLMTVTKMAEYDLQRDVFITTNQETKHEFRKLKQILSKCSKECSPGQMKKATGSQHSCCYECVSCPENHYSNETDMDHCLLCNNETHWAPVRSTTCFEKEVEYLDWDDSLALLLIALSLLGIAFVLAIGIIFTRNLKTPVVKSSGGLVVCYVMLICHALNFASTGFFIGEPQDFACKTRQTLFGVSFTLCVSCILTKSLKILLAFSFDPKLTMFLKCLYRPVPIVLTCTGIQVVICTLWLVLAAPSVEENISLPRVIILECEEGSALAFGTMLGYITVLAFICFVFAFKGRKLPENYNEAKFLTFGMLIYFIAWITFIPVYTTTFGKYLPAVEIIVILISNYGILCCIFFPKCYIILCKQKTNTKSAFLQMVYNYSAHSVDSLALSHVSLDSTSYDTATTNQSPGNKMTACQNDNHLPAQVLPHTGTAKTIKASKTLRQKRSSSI
Method: 2.5 x 10^7 FlpIn-TREx-HEK293-mGPRC6A cells were seeded in a T175 flask and incubated overnight at 37°C in 5% CO2. Cells were then transfected with 35 μg of plasmid DNA (GαqG66D) with Lipofectamine LTX according to manufacturer's instructions, then incubated for 24h at 37°C in 5% CO2. Prior to the experiment, a background reading for each E-plate 96 (Bio-Rad, CA, USA) was measured after addition of 100 μl DMEM + 10% FBS per well. Cells were recovered using Versene and seeded at a 10^5 cells/well density in 200 μl DMEM + 10% FBS (containing 1 μg/ml tetracycline where indicated). Cells were washed 2 x 2 h in HBSS buffer (pH 7.2) containing 20 mM HEPES, 1 mM CaCl2 and 0.1% BSA (w/v) in a total volume of 180 μl. Test compounds (20 μl at 10x final concentration) were added to the plate and cell impedance was monitored for 3 h. Cell index was normalised to the buffer response (minus the baseline response at zero time point).
Concentration-response data were analysed using a three or four parameter logistic function (Motulsky & Christopoulos, 2004) to generate estimates of agonist potency (LogEC50). Data for all HEK293 assays represent the mean ± SEM of at least three independent experiments (except cell impedance, n = 2). For GLP-1 release, the data represent mean ± SEM of three to five independent experiments (except for OCN, wash; n = 2). For insulin release assays, data represent the mean ± SEM of three independent experiments (except for islet studies; n = 2). Insulin release data were normalised to the response to vehicle in either low or high [glucose]. Statistical analysis for GLP-1 release data were performed by one-way ANOVA, followed by Sidak’s multiple comparisons test (treating wash / no wash datasets separately). Statistical analyses for insulin release data were performed by two-way ANOVA (with [glucose] and drug treatment as group variables), followed by Sidak’s multiple comparisons test. Where only high [glucose] groups were evaluated, statistical analysis was by one-way ANOVA followed by Sidak’s multiple comparisons test.

mGPRC6A (mouse GPRC6A) [2] = molecular target: T1, mGPRC6A (mouse GPRC6A); assay: ERK1/2 phosphorylation, FlpIn-TREx-HEK293-mGPRC6A cells; type: cell-based
Method: pcDNA 5/FRT/TO constructs were isogenically integrated into a FlpIn-TREx-HEK293 cell line (Life Technologies). FlpIn-TREx-HEK293-mGPRC6A and FlpIn-TREx-HEK293-hGPRC6A cells were then selected using 600 μg/ml hygromycin and 5 μg/ml blasticidin and grown in culture medium consisting of Dulbecco’s Modified Eagle Medium (DMEM), supplemented with 10% (v/v) foetal bovine serum (FBS) at 37°C in 5% CO2 and were sub-cultured in a 1:3 ratio every 3–4 days. Cells were cultured overnight in the presence of 1 μg/ml tetracycline to induce GPRC6A expression. […] 48 h after transfection, cells were selected using 3 μg/ml puromycin and grown as above.
Cells were then stimulated with ligand at various time points and incubated at 37°C in 5% CO2. 10% FBS (v/v) was used as a positive control. The reaction was terminated by removal of compounds and lysis of cells with SureFire lysis buffer (TGR Biosciences). The lysates were then treated as per the SureFire ERK1/2 kit instructions. Plates were incubated in the dark at 37°C for 1 h, then left to equilibrate with the ambient temperature before the fluorescence signal was measured using a Fusion plate reader (PerkinElmer) with standard AlphaScreen settings. Data were normalised to the maximal response elicited by 10% FBS (v/v) at the same time point.

For “OCN: osteoblast-derived peptide, osteocalcin; variant not specified at the place (YLYQWLGAPVPYPDPLEPRREVCELNPDCDELADHIGFQEAYRRFYGPV; UniProt P02818 52-100, looked up)”, the “IP-One HTRF response to EC25 L-Orn + OCN” value (mC6A; + GqG66D, ref [13] (supplement list)) is given as “No response”, the cAMP accumulation response (mC6A; ref [5] (supplement list)) is given as “cAMP accumulation in response to OCN” and the “IP-One HTRF response” value (mC6A; ref [13] (supplement list)) is given as “No response”. The cAMP response (mC6A; ref [13] (supplement list)) was “no response”, the pERK response (mC6A; ref [13] (supplement list)) was “No specific response” and the “xCELLigence response (summary)” value (mGPRC6A (mouse GPRC6A) [1]; S1 Table) was “No response”. The “pERK1/2 response (summary)” value (mGPRC6A (mouse GPRC6A) [2]; S1 Table) was “no response”.
In the case of `NCCC[C@H](N)C(=O)O` [L-ornithine], the cAMP response (mC6A; ref [3] (supplement list)) is listed as “[^3H]IP turnover - co-transfection with Gαqs5, GαqG66D, Gαq or GαqG66Ds5 enabled response to L-aa but Gαqi, Gαqz, Gαqo did not cAMP – no increase or decrease in response to L-Orn”, the cAMP response (mC6A; ref [13] (supplement list)) is listed as “no response” and the pERK response (mC6A; ref [13] (supplement list)) is listed as “response”. For the same molecule, the EC50 (mGPRC6A (mouse GPRC6A) [1]; tetracycline-induced, GαqG66D, xCELLigence, n = 2, read-out: pEC50, cell impedance (converted)) was 63.1 µM, the “cell impedance (cell index) response” value (mGPRC6A (mouse GPRC6A) [1]; tetracycline-induced, xCELLigence, Fig 4) was “only mGPRC6A-expressing cells responded to L-ornithine; also recorded: increases cellular impedance only in tetracycline-induced cells” and the “stimulation of ERK1/2 phosphorylation” value (mGPRC6A (mouse GPRC6A) [2]; without GαqG66D, L-ornithine 1 mM, OCN variants 40 ng/ml, Fig 3B) was “Neither L-ornithine (1 mM) nor OCN variants (40 ng/ml) stimulate ERK1/2 phosphorylation; also recorded: no detectable modulation of cAMP accumulation or phosphorylation of ERK1/2”.
